The test has as its target truncated PI3Kα (p110α/iSH2 p85α), PI3KA_Act (Homo sapiens (Human), UniProt P42336). Nature of the test: PI3Kα biochemical kinase assay, fluorescence polarization format (PI3KA_Act). As to conditions: 0.5 nM p110α/iSH2 p85, 1 mM ATP, 30 μM PIP2, 15-min preincubation; Morrison equation fit; read-out: PI3KA_Act Ki. Here is the method: Enzyme Production for Biochemical Assay: p110α-iSH2 p85α Complex (Full Length p110α and p85α iSH2)(“PI3KA Act”)
Gene encoding p110α subunit was subcloned into polyhedrine promoter while gene encoding p85α niSH2 domains was subcloned into p10 promoter. […] Recombinant baculovirus was generated using Bac-to-Bac protocol (Life Technologies, Carlsbad, Calif.). Large scale expression was conducted in Sf21 (Life Technologies, Carlsbad, Calif.) cells at a multiplicity of infection (“MOI”)=1 for 48 hours. Cells were lyzed in 50 mM Tris pH 8.0, 250 mM NaCl, 5% glycerol, 0.25 mM TCEP, and 20 mM imidazole. The p110α-niSH2 p85α complex was purified from clarified supernatant using Immobilized Metalo Affinity Chromatography (“IMAC”). The protein was eluted from the column using 50 mM Tris pH 8.0, 200 mM NaCl, 0.25 mM TCEP, and 200 mM imidazole. Following elution p110α-niSH2 p85α complex was dialyzed against 4 liters of 50 mM Tris pH 8.0, 200 mM NaCl, 0.25 mM TCEP, and 40 mM imidazole in the presence of PreScission Protease (1:70 molar ratio of Protease to Protein) and TEV protease (1:40 molar ratio protease to protein) for 16 hours at 4° C. The protein was further purified using reverse IMAC to remove cleaved histidine tag and contaminants captured during initial IMAC purification. The mixture of p110α-iSH2 p85α complex and cleaved nSH2 was recovered in reverse IMAC 40 mM imidazole flow through and 60 mM imidazole wash fractions. Those fractions were pulled together and loaded on Superdex 200 26/60 SEC column equilibrated in 25 mM Tris, pH 8.0, 100 mM NaCl, 2% glycerol, and 2 mM TCEP.
The enzymatic reactions were conducted in 50 μL volumes in 96-well plates. […] The reactions were incubated for 30 min at room temperature, stopped with EDTA pH 8 (10 mM final concentration). […] The plate was shaken for 30 minutes and fluorescence polarization values were measured on an LJL Analyst HT plate reader (Molecular Devices, Sunnyvale, Calif.).
On the technique in general: Fluorescence polarisation rises when a labelled molecule tumbles more slowly, as on binding a larger partner.

Molecules are shown by their SMILES.

Usually Ki stands for the equilibrium dissociation constant of an inhibitor or competing ligand from its target.

Chain of truncated PI3Kα (p110α/iSH2 p85α), PI3KA_Act (P42336 whole entry, the tested form may be a part): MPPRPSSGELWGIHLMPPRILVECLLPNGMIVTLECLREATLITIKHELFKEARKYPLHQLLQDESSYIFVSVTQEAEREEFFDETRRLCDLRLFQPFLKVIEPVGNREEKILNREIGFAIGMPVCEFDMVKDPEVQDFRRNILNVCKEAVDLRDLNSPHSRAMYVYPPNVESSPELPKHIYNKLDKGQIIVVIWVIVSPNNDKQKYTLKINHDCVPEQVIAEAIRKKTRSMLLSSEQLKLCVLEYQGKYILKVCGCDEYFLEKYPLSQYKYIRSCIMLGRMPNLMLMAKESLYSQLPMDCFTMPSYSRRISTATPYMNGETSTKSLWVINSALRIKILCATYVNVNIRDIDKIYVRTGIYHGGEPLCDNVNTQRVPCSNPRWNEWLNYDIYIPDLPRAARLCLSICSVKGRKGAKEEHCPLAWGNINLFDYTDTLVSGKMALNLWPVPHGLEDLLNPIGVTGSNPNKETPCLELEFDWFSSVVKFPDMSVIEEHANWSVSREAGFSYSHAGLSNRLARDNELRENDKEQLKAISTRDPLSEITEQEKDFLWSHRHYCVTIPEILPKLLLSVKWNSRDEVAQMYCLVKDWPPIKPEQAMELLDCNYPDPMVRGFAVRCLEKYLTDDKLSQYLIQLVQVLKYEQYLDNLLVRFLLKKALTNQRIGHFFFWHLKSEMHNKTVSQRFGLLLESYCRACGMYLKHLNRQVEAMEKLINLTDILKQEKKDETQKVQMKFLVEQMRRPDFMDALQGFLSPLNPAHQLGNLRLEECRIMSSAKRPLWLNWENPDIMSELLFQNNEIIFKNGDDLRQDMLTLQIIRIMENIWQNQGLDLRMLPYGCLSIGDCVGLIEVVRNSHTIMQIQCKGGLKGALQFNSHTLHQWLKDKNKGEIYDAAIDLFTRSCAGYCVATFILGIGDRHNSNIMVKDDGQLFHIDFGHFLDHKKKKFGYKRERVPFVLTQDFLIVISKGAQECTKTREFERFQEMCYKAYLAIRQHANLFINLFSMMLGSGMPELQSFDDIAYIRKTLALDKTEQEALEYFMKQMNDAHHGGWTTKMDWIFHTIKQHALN

For `COC(=O)N1CCCC(CO)(Nc2cc(-c3cnc(N)nc3)nc(N3CCOCC3)n2)C1` (racemic) [Example 4, methyl 3-{[2′-amino-2-(morpholin-4-yl)-4,5′-bipyrimidin-6-yl]amino}-3-(hydroxymethyl)piperidine-1-carboxylate], the Ki was found to be 0.03 nM. With `CC(C)(C)OC(=O)N1CCC(CO)(Oc2cc(-c3cnc(N)nc3)nc(N3CCOCC3)n2)C1` (racemic) [Example 7, tert-butyl 3-{[2′-amino-2-(morpholin-4-yl)-4,5′-bipyrimidin-6-yl]oxy}-3-(hydroxymethyl)pyrrolidine-1-carboxylate] the figure was 0.058 nM; with `CC(C)(C)OC(=O)N1CCC(CO)(Oc2cc(-c3cnc(N)nc3)nc(N3CCOCC3)n2)C1` (single isomer, unassigned) [Example 8, tert-butyl 3-{[2′-amino-2-(morpholin-4-yl)-4,5′-bipyrimidin-6-yl]oxy}-3-(hydroxymethyl)pyrrolidine-1-carboxylate], < 0.018 nM. For `CC(C)(C)OC(=O)N1CCC(CO)(Oc2cc(-c3cnc(N)nc3)nc(N3CCOCC3)n2)C1` (single isomer, unassigned) [Example 9, tert-butyl 3-{[2′-amino-2-(morpholin-4-yl)-4,5′-bipyrimidin-6-yl]oxy}-3-(hydroxymethyl)pyrrolidine-1-carboxylate], the Ki was determined as 0.492 nM. To `CN(c1cc(-c2cnc(N)nc2)nc(N2CCOCC2)n1)C1(CO)CCN(C(=O)OC(C)(C)C)C1` (single isomer, unassigned) [Example 26, tert-butyl 3-{[2′-amino-2-(morpholin-4-yl)-4,5′-bipyrimidin-6-yl](methyl)amino}-3-(hydroxymethyl)pyrrolidine-1-carboxylate] belongs < 0.018 nM; to `CN(c1cc(-c2cnc(N)nc2)nc(N2CCOCC2)n1)C1(CO)CCN(C(=O)OC(C)(C)C)C1` (single isomer, unassigned) [Example 27, tert-butyl 3-{[2′-amino-2-(morpholin-4-yl)-4,5′-bipyrimidin-6-yl](methyl)amino}-3-(hydroxymethyl)pyrrolidine-1-carboxylate], 0.717 nM.

Consider `Nc1ncc(-c2nc(N3CCOCC3)nc(N[C@]3(CO)CCCN(C(=O)C4(F)CC4)C3)c2F)cn1` (single isomer, unassigned) [Example 158], for which the inhibition constant Ki is 0.627 nM.

Regarding `Nc1ncc(-c2nc(N3CCOCC3)nc(N[C@@]3(COP(=O)(O)O)CCN(C(=O)OCC(F)F)C3)c2F)cn1` [Example 3, 2,2-difluoroethyl (3S)-3-{[2′-amino-5-fluoro-2-(morpholin-4-yl)-4,5′-bipyrimidin-6-yl]amino}-3-[(phosphonooxy)methyl]pyrrolidine-1-carboxylate], the Ki was determined as 2.61 nM.

Regarding `COC(=O)N1CCC[C@](CO)(Nc2cc(-c3cnc(N)nc3)nc(N3CCOCC3)n2)C1` [Example 5, methyl (3S)-3-{[2′-amino-2-(morpholin-4-yl)-4,5′-bipyrimidin-6-yl]amino}-3-(hydroxymethyl)piperidine-1-carboxylate], the Ki is < 0.018 nM. To `COC(=O)N1CCC[C@@](CO)(Nc2cc(-c3cnc(N)nc3)nc(N3CCOCC3)n2)C1` [Example 6, methyl (3R)-3-{[2′-amino-2-(morpholin-4-yl)-4,5′-bipyrimidin-6-yl]amino}-3-(hydroxymethyl)piperidine-1-carboxylate] belongs 0.881 nM; to `CC(O)[C@]1(Nc2cc(-c3cnc(N)nc3)nc(N3CCOCC3)n2)CCN(C(=O)OC(C)(C)C)C1` (stereo partly drawn) [Example 10, tert-butyl (3S)-3-{[2′-amino-2-(morpholin-4-yl)-4,5′-bipyrimidin-6-yl]amino}-3-(1-hydroxyethyl)pyrrolidine-1-carboxylate], 1.62 nM; to `COC(=O)N1CC[C@](CO)(Nc2nc(-c3cnc(N)nc3)nc(N3CCOCC3)n2)C1` [Example 11, methyl (3S)-3-{[4-(2-aminopyrimidin-5-yl)-6-(morpholin-4-yl)-1,3,5-triazin-2-yl]amino}-3-(hydroxymethyl)pyrrolidine-1-carboxylate], 0.103 nM. Regarding `C[C@@]1(Nc2cc(-c3cnc(N)nc3)nc(N3CCOCC3)n2)CCN(S(C)(=O)=O)C1` [Example 12, N˜6˜-[(3R)-3-methyl-1-(methylsulfonyl)pyrrolidin-3-yl]-2-(morpholin-4-yl)-4,5′-bipyrimidine-2′,6-diamine], the Ki is 1.29 nM. With `C[C@H]1COCCN1c1nc(N[C@]2(C)CCN(C(=O)OC(C)(C)C)C2)cc(-c2cnc(N)nc2)n1` [Example 15, tert-butyl (3R)-3-({2′-amino-2-[(3S)-3-methylmorpholin-4-yl]-4,5′-bipyrimidin-6-yl}amino)-3-methylpyrrolidine-1-carboxylate] the figure was 0.979 nM; with `C[C@H]1COCCN1c1nc(N[C@@]2(C)CCN(C(=O)OC(C)(C)C)C2)cc(-c2cnc(N)nc2)n1` [Example 19, tert-butyl (3S)-3-({2′-amino-2-[(3S)-3-methylmorpholin-4-yl]-4,5′-bipyrimidin-6-yl}amino)-3-methylpyrrolidine-1-carboxylate], 0.158 nM; with `CN(c1cc(-c2cnc(N)nc2)nc(N2CCOCC2)n1)C1(CO)CCN(C(=O)OC(C)(C)C)C1` (centres unmarked) [Example 25, tert-butyl 3-{[2′-amino-2-(morpholin-4-yl)-4,5′-bipyrimidin-6-yl](methyl)amino}-3-(hydroxymethyl)pyrrolidine-1-carboxylate], 0.049 nM.

Regarding `CCC1(Nc2cc(-c3cnc(N)nc3)nc(N3CCOCC3)n2)CCN(C(=O)OC(C)(C)C)C1` (centres unmarked) [Example 28, tert-butyl 3-{[2′-amino-2-(morpholin-4-yl)-4,5′-bipyrimidin-6-yl]amino}-3-ethylpyrrolidine-1-carboxylate], the Ki came to 0.201 nM. Consider `Nc1ncc(-c2cc(N[C@@]3(CO)CCNC3)nc(N3CCOCC3)n2)cn1` [Example 29, [(3S)-3-{[2′-amino-2-(morpholin-4-yl)-4,5′-bipyrimidin-6-yl]amino}pyrrolidin-3-yl]methanol], for which the Ki is 5.88 nM. With `Nc1ncc(-c2cc(N[C@]3(CO)CCNC3)nc(N3CCOCC3)n2)cn1` [Example 30, [(3R)-3-{[2′-amino-2-(morpholin-4-yl)-4,5′-bipyrimidin-6-yl]amino}pyrrolidin-3-yl]methanol] the figure was 2.42 nM; with `CC(=O)N1CC[C@@](CO)(Nc2cc(-c3cnc(N)nc3)nc(N3CCOCC3)n2)C1` [Example 31, 1-[(3R)-3-{[2′-amino-2-(morpholin-4-yl)-4,5′-bipyrimidin-6-yl]amino}-3-(hydroxymethyl)pyrrolidin-1-yl]ethanone], 2.13 nM; with `CC(=O)N1CC[C@](CO)(Nc2cc(-c3cnc(N)nc3)nc(N3CCOCC3)n2)C1` [Example 32, 1-[(3S)-3-{[2′-amino-2-(morpholin-4-yl)-4,5′-bipyrimidin-6-yl]amino}-3-(hydroxymethyl)pyrrolidin-1-yl]ethanone], 0.771 nM. Take `CS(=O)(=O)N1CC[C@](CO)(Nc2cc(-c3cnc(N)nc3)nc(N3CCOCC3)n2)C1` [Example 33, [(3S)-3-{[2′-amino-2-(morpholin-4-yl)-4,5′-bipyrimidin-6-yl]amino}-1-(methylsulfonyl)pyrrolidin-3-yl]methanol]: the Ki came to 0.3 nM. To `COC(=O)N1CC[C@](CO)(Nc2cc(-c3cnc(N)nc3)nc(N3CCOCC3)n2)C1` [Example 34, methyl (3S)-3-{[2′-amino-2-(morpholin-4-yl)-4,5′-bipyrimidin-6-yl]amino}-3-(hydroxymethyl)pyrrolidine-1-carboxylate] belongs 0.019 nM.

Values taken from patent US9758538B2, “Pyrimidine derivatives” (PFIZER INC., priority 2015, dated 2017).
